{
  "source": "patent US20220339143A1",
  "about": "“TAK-925 FOR USE IN TREATING NARCOLEPSY” (Takeda Pharmaceutical Company Limited, priority 2019, published 2022)",
  "assay": "Single dose PK in healthy subjects (Cohorts 1, 2, S1 and S2), plasma",
  "type": "in vivo, human",
  "settings": "human, plasma, iv; for concentration at 3 h after end of infusion: 3 hr After End of Infusions; for concentration at 4 h after end of infusion: 4 hr After End of Infusions; for concentration at 6 h after end of infusion: 6 hr After End of Infusions; for concentration at 10 h after end of infusion: 10 hr After End of Infusions; for concentration at 15 h after end of infusion: 15 hr After End of Infusions",
  "procedure": "This study investigates (i) the safety and tolerability of Compound A (methyl (2R,3S)-3-((methylsulfonyl)amino)-2-(((cis-4-phenylcyclohexyl)oxy)methyl)piperidine-1-carboxylate) when a single dose given as a 9 hour continuous IV infusion is administered to healthy adults, healthy elderly subjects and patients with narcolepsy type 1 (NT1); (ii) the pharmacokinetics of Compound A when a single dose given as a 9 hour continuous IV infusion is administered to healthy adults, healthy elderly subjects and patients with narcolepsy type 1; and (iii) the pharmacodynamics (PD) effects of Compound A, primarily by evaluation of the sleep latency on MWT when a single dose given as a 9 hour continuous IV infusion is administered to patients with narcolepsy type 1.\nPharmacokinetics: Concentrations of Compound A in plasma, and CSF, and pharmacokinetics parameters.\nOn average, the time to reach the plateau appeared to be approximately 3 to 4 hours after the start of infusion. […] After switching off the IV infusion, Compound A plasma concentrations declined rapidly and in a biphasic manner with a mean terminal disposition phase t1/2z ranging approximately from 3.4 to 5.1 hours across all doses. […] Table 5 provides a summary of plasma concentrations of Compound A after a single IV infusion in healthy subjects. Table 6 provides a summary of pharmacokinetic parameters of Compound A after a single IV infusion in healthy subjects.",
  "key": {"[1]": {"settings": "240 mg, 240 mg single IV infusion, read-out: Plasma Concentration of Cmpd A, Maximum"}, "[2]": {"settings": "240 mg, 240 mg single IV infusion, read-out: Plasma Concentration of Cmpd A, Median"}, "[3]": {"settings": "240 mg, 240 mg single IV infusion, read-out: Plasma Concentration of Cmpd A, Q3"}, "[4]": {"settings": "240 mg, 240 mg single IV infusion, read-out: Plasma Concentration of Cmpd A, Q1"}},
  "note": "Where two headings read alike, the source gives them in different places.",
  "data": [
    {"smiles": "COC(=O)N1CCC[C@H](NS(C)(=O)=O)[C@@H]1CO[C@H]1CC[C@@H](c2ccccc2)CC1", "note": "[Compound A, methyl (2R,3S)-3-((methylsulfonyl)amino)-2-(((cis-4-phenylcyclohexyl)oxy)methyl)piperidine-1-carboxylate]", "values": [
      {"measurement": "Vd", "setting": "240 mg, 240 mg single IV infusion, healthy subjects, read-out: Vz Mean", "result": 313, "unit": "L"},
      {"measurement": "Vd", "setting": "240 mg, 240 mg single IV infusion, healthy subjects, read-out: Vz Median", "result": 293, "unit": "L"},
      {"measurement": "Tmax", "setting": "240 mg, 240 mg single IV infusion, healthy subjects, read-out: tmax Mean", "result": 5.33, "unit": "h"},
      {"measurement": "Tmax", "setting": "240 mg, 240 mg single IV infusion, healthy subjects, read-out: tmax Median", "result": 4, "unit": "h"},
      {"measurement": "concentration at 0.5 h", "setting": "240 mg, 240 mg single IV infusion, 0.5 hr, read-out: Plasma Concentration of Cmpd A, Maximum", "result": 400, "unit": "ng/mL"},
      {"measurement": "concentration at 0.5 hr", "setting": "240 mg, 240 mg single IV infusion, 0.5 hr, read-out: Plasma Concentration of Cmpd A, Median", "result": 264, "unit": "ng/mL"},
      {"measurement": "concentration at 0.5 hr", "setting": "240 mg, 240 mg single IV infusion, 0.5 hr, read-out: Plasma Concentration of Cmpd A, Q3", "result": 368, "unit": "ng/mL"},
      {"measurement": "concentration at 1 h", "setting": "240 mg, 240 mg single IV infusion, 1 hr, read-out: Plasma Concentration of Cmpd A, Maximum", "result": 465, "unit": "ng/mL"},
      {"measurement": "concentration at 1 hr", "setting": "240 mg, 240 mg single IV infusion, 1 hr, read-out: Plasma Concentration of Cmpd A, Median", "result": 318, "unit": "ng/mL"},
      {"measurement": "concentration at 1 hr", "setting": "240 mg, 240 mg single IV infusion, 1 hr, read-out: Plasma Concentration of Cmpd A, Q3", "result": 418, "unit": "ng/mL"},
      {"measurement": "concentration at 1.5 h", "setting": "240 mg, 240 mg single IV infusion, 1.5 hr, read-out: Plasma Concentration of Cmpd A, Maximum", "result": 480, "unit": "ng/mL"},
      {"measurement": "concentration at 1.5 hr", "setting": "240 mg, 240 mg single IV infusion, 1.5 hr, read-out: Plasma Concentration of Cmpd A, Median", "result": 370, "unit": "ng/mL"},
      {"measurement": "concentration at 1.5 hr", "setting": "240 mg, 240 mg single IV infusion, 1.5 hr, read-out: Plasma Concentration of Cmpd A, Q3", "result": 463, "unit": "ng/mL"},
      {"measurement": "concentration at 2 h", "setting": "240 mg, 240 mg single IV infusion, 2 hr, read-out: Plasma Concentration of Cmpd A, Maximum", "result": 482, "unit": "ng/mL"},
      {"measurement": "concentration at 2 hr", "setting": "240 mg, 240 mg single IV infusion, 2 hr, read-out: Plasma Concentration of Cmpd A, Median", "result": 399, "unit": "ng/mL"},
      {"measurement": "concentration at 2 hr", "setting": "240 mg, 240 mg single IV infusion, 2 hr, read-out: Plasma Concentration of Cmpd A, Q3", "result": 452, "unit": "ng/mL"},
      {"measurement": "concentration at 3 h after end of infusion", "setting": "[1]", "result": 91, "unit": "ng/mL"},
      {"measurement": "concentration at 3 h after end of infusion", "setting": "[2]", "result": 75.5, "unit": "ng/mL"},
      {"measurement": "concentration at 3 h after end of infusion", "setting": "[3]", "result": 87.1, "unit": "ng/mL"},
      {"measurement": "concentration at 3 h", "setting": "240 mg, 240 mg single IV infusion, 3 hr, read-out: Plasma Concentration of Cmpd A, Maximum", "result": 582, "unit": "ng/mL"},
      {"measurement": "concentration at 3 hr", "setting": "240 mg, 240 mg single IV infusion, 3 hr, read-out: Plasma Concentration of Cmpd A, Median", "result": 422, "unit": "ng/mL"},
      {"measurement": "concentration at 3 h", "setting": "240 mg, 240 mg single IV infusion, 3 hr, read-out: Plasma Concentration of Cmpd A, Q3", "result": 515, "unit": "ng/mL"},
      {"measurement": "concentration at 4 h after end of infusion", "setting": "[1]", "result": 65.1, "unit": "ng/mL"},
      {"measurement": "concentration at 4 h after end of infusion", "setting": "[2]", "result": 56.5, "unit": "ng/mL"},
      {"measurement": "concentration at 4 h after end of infusion", "setting": "[4]", "result": 53.1, "unit": "ng/mL"},
      {"measurement": "concentration at 4 h after end of infusion", "setting": "[3]", "result": 62.7, "unit": "ng/mL"},
      {"measurement": "concentration at 4 h", "setting": "240 mg, 240 mg single IV infusion, 4 hr, read-out: Plasma Concentration of Cmpd A, Maximum", "result": 650, "unit": "ng/mL"},
      {"measurement": "concentration at 4 hr", "setting": "240 mg, 240 mg single IV infusion, 4 hr, read-out: Plasma Concentration of Cmpd A, Median", "result": 459, "unit": "ng/mL"},
      {"measurement": "concentration at 4 h", "setting": "240 mg, 240 mg single IV infusion, 4 hr, read-out: Plasma Concentration of Cmpd A, Q3", "result": 579, "unit": "ng/mL"},
      {"measurement": "concentration at 6 h after end of infusion", "setting": "[1]", "result": 38.2, "unit": "ng/mL"},
      {"measurement": "concentration at 6 h after end of infusion", "setting": "[2]", "result": 28.4, "unit": "ng/mL"},
      {"measurement": "concentration at 6 h after end of infusion", "setting": "[4]", "result": 23, "unit": "ng/mL"},
      {"measurement": "concentration at 6 h after end of infusion", "setting": "[3]", "result": 36.9, "unit": "ng/mL"},
      {"measurement": "concentration at 6 h", "setting": "240 mg, 240 mg single IV infusion, 6 hr, read-out: Plasma Concentration of Cmpd A, Maximum", "result": 532, "unit": "ng/mL"},
      {"measurement": "concentration at 6 hr", "setting": "240 mg, 240 mg single IV infusion, 6 hr, read-out: Plasma Concentration of Cmpd A, Median", "result": 410, "unit": "ng/mL"},
      {"measurement": "concentration at 6 h", "setting": "240 mg, 240 mg single IV infusion, 6 hr, read-out: Plasma Concentration of Cmpd A, Q3", "result": 514, "unit": "ng/mL"},
      {"measurement": "concentration at 8 h", "setting": "240 mg, 240 mg single IV infusion, 8 hr, read-out: Plasma Concentration of Cmpd A, Maximum", "result": 562, "unit": "ng/mL"},
      {"measurement": "concentration at 8 hr", "setting": "240 mg, 240 mg single IV infusion, 8 hr, read-out: Plasma Concentration of Cmpd A, Median", "result": 470, "unit": "ng/mL"},
      {"measurement": "concentration at 8 hr", "setting": "240 mg, 240 mg single IV infusion, 8 hr, read-out: Plasma Concentration of Cmpd A, Q3", "result": 542, "unit": "ng/mL"},
      {"measurement": "concentration at 9 h", "setting": "240 mg, 240 mg single IV infusion, 9 hr, read-out: Plasma Concentration of Cmpd A, Maximum", "result": 613, "unit": "ng/mL"},
      {"measurement": "concentration at 9 hr", "setting": "240 mg, 240 mg single IV infusion, 9 hr, read-out: Plasma Concentration of Cmpd A, Median", "result": 481, "unit": "ng/mL"},
      {"measurement": "concentration at 9 hr", "setting": "240 mg, 240 mg single IV infusion, 9 hr, read-out: Plasma Concentration of Cmpd A, Q3", "result": 539, "unit": "ng/mL"},
      {"measurement": "concentration at 10 h after end of infusion", "setting": "[1]", "result": 18.6, "unit": "ng/mL"},
      {"measurement": "concentration at 10 h after end of infusion", "setting": "[2]", "result": 16.6, "unit": "ng/mL"},
      {"measurement": "concentration at 10 h after end of infusion", "setting": "[4]", "result": 10.3, "unit": "ng/mL"},
      {"measurement": "concentration at 10 h after end of infusion", "setting": "[3]", "result": 17.5, "unit": "ng/mL"},
      {"measurement": "concentration at 15 h after end of infusion", "setting": "[1]", "result": 9.71, "unit": "ng/mL"},
      {"measurement": "concentration at 15 h after end of infusion", "setting": "[2]", "result": 7.64, "unit": "ng/mL"},
      {"measurement": "concentration at 15 h after end of infusion", "setting": "[4]", "result": 3.39, "unit": "ng/mL"},
      {"measurement": "concentration at 15 h after end of infusion", "setting": "[3]", "result": 8.82, "unit": "ng/mL"},
      {"measurement": "clearance", "setting": "IV administration, healthy subjects, read-out: mean estimates of plasma clearance", "result": "717 to 1000", "unit": "mL/min"}
    ]}
  ]
}
